In one assay the target is c-Cbl (residues 47-435) (Homo sapiens (Human), UniProt P22681). As to the kind of experiment: c-Cbl SPR assay. The note with it: 20° C. The format is binding. The method in brief:
(§1)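 Values derive from a 1:1 model fitted to multicycle kinetics on captured protein (1300-1500 RU), using six 2-fold concentrations, 60 s contact and dissociation of 120-1200 s. In the chaser format, kd comes from a single-exponential fit of % site occupancy over time.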
(Surface plasmon resonance follows binding to a sensor surface in real time, without labels.)

The target of assay [1] is Human Cbl-b (residues 40-426) (Homo sapiens (Human), UniProt Q13191). As to the kind of experiment: Cbl-b SPR assay. The assay is classed as binding. As to conditions: for Fold of selectivity: C-cbl SPR Kd vs Cbl-b SPR Kd; for Kd: SPR, 20° C. The method in brief: as §1
Another assay concerns the target c-Cbl (Homo sapiens (Human), UniProt P22681). As to the kind of experiment: C-Cbl LCK Ub TR-FRET assay (C-cbl Lck HTRF). The format is biochemical. A digest of the protocol: (§2)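 Detection reagents added, brief spin, 20 min RT. IC50 fit normalized to no-LCK (low) and DMSO (high) controls.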
On the technique in general: Time-resolved FRET reads energy transfer from a long-lived donor to a nearby acceptor.

In the next assay the target is Cbl-b (Homo sapiens (Human), UniProt Q13191). As to the kind of experiment: Cbl-b LCK Ub TR-FRET assay (Cbl-b Lck HTRF). As to conditions: for IC50: Cbl-b LCK Ub TR-FRET; for fold-selectivity (Cbl-b over C-cbl): ratio C-cbl Lck HTRF IC50 / Cbl-b Lck HTRF IC50. The format is biochemical. A digest of the protocol:
as §2

Each structure is given as a SMILES string.

Chain of c-Cbl (residues 47-435) (P22681 47-435): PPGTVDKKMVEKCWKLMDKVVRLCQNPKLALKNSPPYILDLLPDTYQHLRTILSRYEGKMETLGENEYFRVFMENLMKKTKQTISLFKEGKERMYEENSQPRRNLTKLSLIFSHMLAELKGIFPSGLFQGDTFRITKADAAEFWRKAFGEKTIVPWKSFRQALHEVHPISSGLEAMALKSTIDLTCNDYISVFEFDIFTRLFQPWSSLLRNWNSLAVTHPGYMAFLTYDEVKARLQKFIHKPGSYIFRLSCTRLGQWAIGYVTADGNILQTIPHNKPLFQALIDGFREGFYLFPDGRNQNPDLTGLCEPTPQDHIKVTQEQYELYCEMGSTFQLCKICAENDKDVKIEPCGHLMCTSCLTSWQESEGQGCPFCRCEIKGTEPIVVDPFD
Chain of c-Cbl (P22681 47-435): as above
Chain of Cbl-b (Q13191 40-426): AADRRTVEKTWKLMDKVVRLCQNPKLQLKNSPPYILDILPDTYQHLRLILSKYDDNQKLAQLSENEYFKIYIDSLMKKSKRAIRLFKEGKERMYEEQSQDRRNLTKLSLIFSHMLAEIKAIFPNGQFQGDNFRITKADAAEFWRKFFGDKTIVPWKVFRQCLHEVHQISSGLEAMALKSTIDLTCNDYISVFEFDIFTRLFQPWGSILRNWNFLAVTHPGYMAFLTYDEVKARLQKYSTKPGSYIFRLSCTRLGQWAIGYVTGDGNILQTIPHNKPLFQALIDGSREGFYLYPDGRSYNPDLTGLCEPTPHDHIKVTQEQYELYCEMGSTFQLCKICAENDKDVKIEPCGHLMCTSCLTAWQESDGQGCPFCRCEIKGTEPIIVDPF
Chain of Human Cbl-b (residues 40-426) (Q13191 40-426): as above

Regarding `C[C@H](NC1(C)CCC1)c1cc2c(c(C(F)(F)F)c1)CN(c1cccc(C(c3nncn3C)C3COC3)c1)C2=O` (stereo partly drawn) [Compound 285], on c-Cbl (residues 47-435), the Kd is 0.8 nM. Moreover, in assay [1], the Fold of selectivity is given as 1.1× and binding was characterised by a dissociation constant (Kd) of 0.7 nM. 6.5 nM corresponded to half-maximal inhibition at c-Cbl (IC50). Besides, on Cbl-b, the IC50 was 6 nM and the “fold-selectivity (Cbl-b over C-cbl)” value came to 1.1x.

Turning to `Cn1cnnc1C1(c2cccc(N3Cc4c(cc(CNC5(C)CCC5)cc4C(F)(F)F)C3=O)c2)CCCC1` [Compound 292, 2-(3-(1-(4-methyl-4H-1,2,4-triazol-3-yl)cyclopentyl)phenyl)-6-(((1-methylcyclobutyl)amino)methyl)-4-(trifluoromethyl)isoindolin-1-one], the Kd on c-Cbl (residues 47-435) was 31 nM; in assay [1] it was 5 nM. This compound yielded a Fold of selectivity in assay [1] of 6.3×. For the same compound, the results for the IC50 on c-Cbl and on Cbl-b were 23 nM and 9.8 nM, respectively. Moreover, the “fold-selectivity (Cbl-b over C-cbl)” value on Cbl-b is given as 2.4x.

`Cn1cnnc1C1(c2cccc(N3Cc4c(cc(CNC5(C)CCC5)cc4C(F)(F)F)C3=O)c2)CC2(C1)OCCO2` [Compound 293, 2-(3-(2-(4-methyl-4H-1,2,4-triazol-3-yl)-5,8-dioxaspiro[3.4]octan-2-yl)phenyl)-6-(((1-methylcyclobutyl)amino)methyl)-4-(trifluoromethyl)isoindolin-1-one] returned a dissociation constant (Kd) on c-Cbl (residues 47-435) of 200 nM. In assay [1], this compound showed a Fold of selectivity of 4.0× and a dissociation constant Kd of 53 nM. The compound also had a half-maximal inhibitory concentration (IC50) on c-Cbl of 190 nM. Further, at Cbl-b, 64 nM corresponded to half-maximal inhibition (IC50) and the “fold-selectivity (Cbl-b over C-cbl)” value is 3.0x.

As to `Cn1cnnc1[C@H](C[C@H]1COCCO1)c1cccc(N2Cc3c(cc(CNC4(C)CCC4)cc3C(F)(F)F)C2=O)c1` [Compound 294, 2-(3-((R)-2-((S)-1,4-dioxan-2-yl)-1-(4-methyl-4H-1,2,4-triazol-3-yl)ethyl)phenyl)-6-(((1-methylcyclobutyl)amino)methyl)-4-(trifluoromethyl)isoindolin-1-one], the dissociation constant (Kd) was 720 nM at c-Cbl (residues 47-435) and 530 nM in assay [1]. In assay [1], this compound displayed a Fold of selectivity of 1.3×. The values for the IC50 against c-Cbl and on Cbl-b were 660 nM and 400 nM, respectively. In addition, the “fold-selectivity (Cbl-b over C-cbl)” value on Cbl-b came to 1.6x.

Turning to `Cn1cnnc1[C@H](C[C@@H]1COCCO1)c1cccc(N2Cc3c(cc(CNC4(C)CCC4)cc3C(F)(F)F)C2=O)c1` [Compound 297, 2-(3-((R)-2-((R)-1,4-dioxan-2-yl)-1-(4-methyl-4H-1,2,4-triazol-3-yl)ethyl)phenyl)-6-(((1-methylcyclobutyl)amino)methyl)-4-(trifluoromethyl)isoindolin-1-one], the dissociation constant Kd at c-Cbl (residues 47-435) turned out to be 5800 nM. In assay [1], this compound had a Fold of selectivity of 2.0× and a dissociation constant Kd of 2800 nM. In addition, half-maximal inhibition against c-Cbl (IC50) required 2300 nM. In addition, at Cbl-b, it took 1300 nM to reach half-maximal inhibition (IC50) and the “fold-selectivity (Cbl-b over C-cbl)” value came to 1.8x.

In turn, `Cn1cnnc1C1(c2cccc(N3Cc4c(cc(CNC5(C)CCC5)cc4C(F)(F)F)C3=O)c2)CCCCC1` [Compound 298, 2-(3-(1-(4-methyl-4H-1,2,4-triazol-3-yl)cyclohexyl)phenyl)-6-(((1-methylcyclobutyl)amino)methyl)-4-(trifluoromethyl)isoindolin-1-one] returned a dissociation constant (Kd) at c-Cbl (residues 47-435) of 2600 nM. In assay [1], this compound returned a Fold of selectivity of 5.9× and a Kd of 480 nM. This compound also yielded a half-inhibitory concentration (IC50) against c-Cbl of 1500 nM. In addition, on Cbl-b, the IC50 was determined as 660 nM and the “fold-selectivity (Cbl-b over C-cbl)” value was 2.3x.

As for `Cn1cnnc1[C@@](C)(O)c1cccc(N2Cc3c(cc(CNC4(C)CCC4)cc3C(F)(F)F)C2=O)c1` [Compound 306, (S)-2-(3-(1-hydroxy-1-(4-methyl-4H-1,2,4-triazol-3-yl)ethyl)phenyl)-6-(((1-methylcyclobutyl)amino)methyl)-4-(trifluoromethyl)isoindolin-1-one], at c-Cbl (residues 47-435), the dissociation constant (Kd) is 280 nM. In assay [1], this compound came in with a Fold of selectivity of 2.0× and a dissociation constant (Kd) of 140 nM. For the same compound, the concentration for half-maximal inhibition (IC50) on c-Cbl was 230 nM. At Cbl-b, inhibition was half-maximal at 140 nM (IC50) and the “fold-selectivity (Cbl-b over C-cbl)” value is listed as 1.6x.

For the compound `CC(C)[C@](O)(c1cccc(N2Cc3c(cc(CNC4(C)CCC4)cc3C(F)(F)F)C2=O)c1)c1nncn1C` [Compound 310, (S)-2-(3-(1-hydroxy-2-methyl-1-(4-methyl-4H-1,2,4-triazol-3-yl)propyl)phenyl)-6-(((1-methylcyclobutyl)amino)methyl)-4-(trifluoromethyl)isoindolin-1-one], the equilibrium dissociation constant (Kd) at c-Cbl (residues 47-435) was 110 nM; in assay [1], 30 nM. The compound further yielded a Fold of selectivity in assay [1] of 3.7×. The IC50 was 110 nM against c-Cbl and 24 nM against Cbl-b. Also, the “fold-selectivity (Cbl-b over C-cbl)” value at Cbl-b amounted to 4.7x.

In the case of `CC[C@H](NC1(C)CCC1)c1cc2c(c(C(F)(F)F)c1)CN(c1cccc([C@H](c3nncn3C)C3COC3)c1)C2=O` [Compound 313, 2-(3-((R)-(4-methyl-4H-1,2,4-triazol-3-yl)(oxetan-3-yl)methyl)phenyl)-6-((S)-1-((1-methylcyclobutyl)amino)propyl)-4-(trifluoromethyl)isoindolin-1-one], at c-Cbl (residues 47-435), the equilibrium dissociation constant (Kd) came to 0.8 nM. In assay [1], the Fold of selectivity stood at 4.0× and binding was put at a Kd of 0.2 nM. The half-maximal inhibitory concentration (IC50) on c-Cbl came out at 4.4 nM. Besides, at Cbl-b, the IC50 worked out at 6.4 nM and the “fold-selectivity (Cbl-b over C-cbl)” value came to 0.68x.

Compound `CC[C@@H](NC1(C)CCC1)c1cc2c(c(C(F)(F)F)c1)CN(c1cccc([C@H](c3nncn3C)C3COC3)c1)C2=O` [Compound 314, 2-(3-((R)-(4-methyl-4H-1,2,4-triazol-3-yl)(oxetan-3-yl)methyl)phenyl)-6-((R)-1-((1-methylcyclobutyl)amino)propyl)-4-(trifluoromethyl)isoindolin-1-one] came in with an equilibrium dissociation constant (Kd) on c-Cbl (residues 47-435) of 28 nM. For the same compound, in assay [1], the Fold of selectivity is 5.5× and binding was put at a Kd of 5.1 nM. Moreover, it took 51 nM to reach half-maximal inhibition against c-Cbl (IC50). On Cbl-b, it took 11 nM to reach half-maximal inhibition (IC50) and the “fold-selectivity (Cbl-b over C-cbl)” value is 4.5x.

At c-Cbl (residues 47-435), `Cn1cnnc1[C@@H](c1cccc(N2Cc3c(Cl)cc(CNC4(C)CCC4)cc3C2=O)c1)[C@H]1C[C@@H](F)C1` [Compound 317, 4-chloro-2-(3-((R)-((1s,3S)-3-fluorocylcobutyl)(4-methyl-4H-1,2,4-triazol-3-yl)methyl)phenyl)-6-(((1-methylcyclobutyl)amino)methyl)isoindolin-1-one] gave a Kd of 1500 nM. Moreover, in assay [1], the Fold of selectivity came out at 15× and the Kd came to 100 nM. This compound also registered an IC50 on c-Cbl of 1100 nM. In addition, at Cbl-b, the IC50 came out at 170 nM and the “fold-selectivity (Cbl-b over C-cbl)” value is given as 6.5x.

Consider `CS[C@H]1C[C@](c2cccc(N3Cc4c(cc(CNC5(C)CCC5)cc4C(F)(F)F)C3=O)c2)(c2nncn2C)C1` [Compound 323, 2-(3-((1r,3r)-1-(4-methyl-4H-1,2,4-triazol-3-yl)-3-(methylthio)cyclobutyl)phenyl)-6-(((1-methylcyclobutyl)amino)methyl)-4-(trifluoromethyl)isoindolin-1-one], for which the results for the equilibrium dissociation constant (Kd) (at c-Cbl (residues 47-435); in assay [1]) were 5.2 nM and 0.47 nM, respectively. In assay [1], this compound displayed a Fold of selectivity of 12×. Moreover, the IC50 was 7.1 nM on c-Cbl and 5 nM at Cbl-b. For the same compound, on Cbl-b, the “fold-selectivity (Cbl-b over C-cbl)” value was 1.4x.

Turning to `CS[C@H]1C[C@@](c2cccc(N3Cc4c(cc(CNC5(C)CCC5)cc4C(F)(F)F)C3=O)c2)(c2nncn2C)C1` [Compound 324, 2-(3-((1s,3s)-1-(4-methyl-4H-1,2,4-triazol-3-yl)-3-(methylthio)cyclobutyl)phenyl)-6-(((1-methylcyclobutyl)amino)methyl)-4-(trifluoromethyl)isoindolin-1-one], the Kd on c-Cbl (residues 47-435) turned out to be 5.7 nM. In assay [1], this compound displayed a Fold of selectivity of 10× and a Kd of 0.57 nM. The compound also returned a half-maximal inhibitory concentration (IC50) on c-Cbl of 7.1 nM. Also, on Cbl-b, the IC50 was 4.8 nM and the “fold-selectivity (Cbl-b over C-cbl)” value turned out to be 1.5x.

With `Cn1cnnc1C1(c2cccc(N3Cc4c(cc(C(N)=O)cc4C(F)(F)F)C3=O)c2)CCC1` [Compound 327, 2-(3-(1-(4-methyl-4H-1,2,4-triazol-3-yl)cyclobutyl)phenyl)-3-oxo-7-(trifluoromethyl)isoindoline-5-carboxamide], the Kd on c-Cbl (residues 47-435) worked out at 980 nM. Further, in assay [1], the Fold of selectivity is on record as 4.7× and the affinity, expressed as Kd, was 210 nM. On c-Cbl, the half-inhibitory concentration (IC50) was determined as 550 nM. Further, at Cbl-b, the IC50 came out at 190 nM and the “fold-selectivity (Cbl-b over C-cbl)” value turned out to be 2.9x.

Compound `Cn1cnnc1C1(c2cccc(N3Cc4c(cc(CNC5(C)CCC5)cc4C(F)(F)F)C3=O)c2)CS(=O)(=O)C1` [Compound 328, 2-(3-(3-(4-methyl-4H-1,2,4-triazol-3-yl)-1,1-dioxidothietan-3-yl)phenyl)-6-(((1-methylcyclobutyl)amino)methyl)-4-(trifluoromethyl)isoindolin-1-one] came in with a dissociation constant (Kd) on c-Cbl (residues 47-435) of 320 nM. In assay [1], this compound registered a Fold of selectivity of 4.8× and a Kd of 67 nM. This compound also yielded a 50% inhibitory concentration (IC50) against c-Cbl of 380 nM. Moreover, at Cbl-b, the IC50 was 100 nM and the “fold-selectivity (Cbl-b over C-cbl)” value was 3.8x.

In the case of `Cn1cnnc1C1(c2cccc(N3Cc4c(cc(CNC5(C)CCC5)cc4C(F)(F)F)C3=O)c2)CSC1.O=CO` [Compound 329, 2-(3-(3-(4-methyl-4H-1,2,4-triazol-3-yl)thietan-3-yl)phenyl)-6-(((1-methylcyclobutyl)amino)methyl)-4-(trifluoromethyl)isoindolin-1-one formate], the Kd came to 19 nM at c-Cbl (residues 47-435) and 3.2 nM in assay [1]. The same compound returned a Fold of selectivity in assay [1] of 5.7×. Also, the IC50 amounted to 19 nM against c-Cbl and 11 nM against Cbl-b. Further, on Cbl-b, the “fold-selectivity (Cbl-b over C-cbl)” value is 1.8x.

As a reminder, the Kd is the free concentration of one partner at which half of the binding sites on the other are occupied at equilibrium, for simple one-to-one binding. The term IC50 denotes the midpoint of a concentration-inhibition curve. A low value points to inhibition by little substance.

These data come from patent publication US12187709B2 (Genentech, Inc., priority 2021, dated 2025).
